Data taken from article PMC9233891 (Bioorganic Chemistry, 2022).

How the values were obtained:
ancestral SARS-CoV-2 = experiment: microbe, parasite or virus in culture; format: cell-based; conditions: Severe acute respiratory syndrome coronavirus 2, Vero, 24 h, read-out: IC50, inhibition of SARS-CoV-2 infection
[1] = tested on: S protein / ACE2 interaction; conditions: previous study; cited from earlier work

Question: Which IC50 (ancestral SARS-CoV-2) does the source give for `CCN(CC)CCCC(C)Nc1ccnc2cc(Cl)ccc12` (stereo not drawn) [chloroquine] here?
Answer: Its IC50 is 5.56 µM.

Question: With `C[C@@H]1O[C@@H](O[C@H]2[C@H](OC(=O)[C@]34CCC(C)(C)C[C@H]3C3=CC[C@@H]5[C@@]6(C)C[C@H](O)[C@H](O[C@@H]7O[C@H](CO)[C@@H](O)[C@H](O)[C@H]7O)C(CO)(CO)[C@@H]6CC[C@@]5(C)[C@]3(C)C[C@H]4O)OC[C@H](O)[C@@H]2O)[C@H](O)[C@H](O)[C@H]1O[C@@H]1OC[C@@H](O)[C@H](O[C@@H]2OC[C@](O)(CO)[C@H]2O)[C@H]1O` [Platycodin D, platycodin D] as the compound, how does the “inhibition of the interaction between the S protein and ACE2” value [1] read?
Answer: The value was “does not inhibit the interaction between the S protein and ACE2”.

Question: With `CCC(CC)COC(=O)[C@H](C)N[P@](=O)(OC[C@H]1O[C@@](C#N)(c2ccc3c(N)ncnn23)[C@H](O)[C@@H]1O)Oc1ccccc1` [remdesivir] as the compound, how does the IC50 (ancestral SARS-CoV-2) read?
Answer: The IC50 was 4.67 µM.
